This passage reports IC50 results from patent US20090062294A1, “HETEROARYL-SUBSTITUTED UREA MODULATORS OF FATTY ACID AMIDE HYDROLASE” (priority 2007, published 2009).

The target in test [1] is T1, FAAH (Homo sapiens, UniProt O00519).
T1 sequence (O00519 1-579): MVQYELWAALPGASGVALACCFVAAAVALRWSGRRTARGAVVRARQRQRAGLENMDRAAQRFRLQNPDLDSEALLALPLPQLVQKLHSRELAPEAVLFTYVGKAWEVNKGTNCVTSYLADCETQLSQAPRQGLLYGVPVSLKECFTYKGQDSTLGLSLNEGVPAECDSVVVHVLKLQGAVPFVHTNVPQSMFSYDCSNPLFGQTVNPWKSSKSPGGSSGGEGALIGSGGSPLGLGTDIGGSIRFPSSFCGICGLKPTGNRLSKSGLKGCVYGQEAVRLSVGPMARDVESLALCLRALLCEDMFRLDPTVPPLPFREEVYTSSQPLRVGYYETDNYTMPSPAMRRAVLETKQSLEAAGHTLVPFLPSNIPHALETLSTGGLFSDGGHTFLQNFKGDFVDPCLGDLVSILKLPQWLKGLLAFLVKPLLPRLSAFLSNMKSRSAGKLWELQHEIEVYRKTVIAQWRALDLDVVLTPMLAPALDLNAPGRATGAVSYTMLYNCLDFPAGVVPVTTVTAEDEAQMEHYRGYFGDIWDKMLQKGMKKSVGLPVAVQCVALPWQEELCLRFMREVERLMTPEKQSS
The test is described as follows: Assay Method 1: FAAH assay, 3H-anandamide hydrolysis in homogenate of T84 cells or SK-N-MC cells transfected with human FAAH. The following applies: average of results, > = solubility limit or highest concentration tested. The class given is biochemical. Here is the method:
A. Transfection of Cells with Human FAAH
(§1) A 10-cm tissue culture dish with a confluent monolayer of SK—N-MC cells was split 2 days (d) prior to transfection. Using sterile technique, the media was removed and the cells were detached from the dish by the addition of trypsin. One fifth of the cells were then placed onto a new 10-cm dish. Cells were grown in a 37° C. incubator with 5% CO2 in Minimal Essential Media Eagle with 10% Fetal Bovine Serum. After 2 d, cells were approximately 80% confluent. These cells were removed from the dish with trypsin and pelleted in a clinical centrifuge. The pellet was re-suspended in 400 μL complete media and transferred to an electroporation cuvette with a 0.4 cm gap between the electrodes. Supercoiled human FAAH cDNA (1 μg) was added to the cells and mixed. The voltage for the electroporation was set at 0.25 kV, and the capacitance was set at 960 μF. After electroporation, the cells were diluted into complete media (10 mL) and plated onto four 10-cm dishes. Because of the variability in the efficiency of electroporation, four different concentrations of cells were plated. The ratios used were 1:20, 1:10, and 1:5, with the remainder of the cells being added to the fourth dish. The cells were allowed to recover for 24 h before adding the selection media (complete media with 600 μg/mL G418). After 10 d, dishes were analyzed for surviving colonies of cells. Dishes with well-isolated colonies were used. Cells from individual colonies were isolated and tested.
(§2) T84 frozen cell pellets or transfected SK—N-MC cells (contents of 1×15 cm culture dishes) were homogenized in 50 mL of FAAH assay buffer (125 mM Tris, 1 mM EDTA, 0.2% Glycerol, 0.02% Triton X-100, 0.4 mM Hepes, pH 9). The assay mixture consisted of 50 μL of the cell homogenate, 10 μL of the test compound, and 40 μL of anandamide [1-^3H-ethanolamine] (^3H-AEA, Perkin-Elmer, 10.3 Ci/mmol), which was added last, for a final tracer concentration of 80 nM. The reaction mixture was incubated at rt for 1 h. During the incubation, 96-well Multiscreen filter plates (catalog number MAFCNOB50; Millipore, Bedford, Mass., USA) were loaded with 25 μL of activated charcoal (Multiscreen column loader, catalog number MACL09625, Millipore) and washed once with 100 μL of MeOH. Also during the incubation, 96-well DYNEX MicroLite plates (catalog number NL510410) were loaded with 100 μL of MicroScint40 (catalog number 6013641, Packard Bioscience, Meriden, Conn., USA). After the 1 h incubation, 60 μL of the reaction mixture were transferred to the charcoal plates, which were then assembled on top of the DYNEX plates using Centrifuge Alignment Frames (catalog number MACF09604, Millipore). The unbound labeled ethanolamine was centrifuged through to the bottom plate (5 min at 2000 rpm), which was preloaded with the scintillant, as described above. The plates were sealed and left at rt for 1 h before counting on a Hewlett Packard TopCount.
(§3) Compounds were tested in free base, hydrochloride salt, and/or trifluoroacetic acid salt forms.

Test [2] deals with T2, rat FAAH (Rattus norvegicus, UniProt P97612).
T2 sequence (P97612 1-579): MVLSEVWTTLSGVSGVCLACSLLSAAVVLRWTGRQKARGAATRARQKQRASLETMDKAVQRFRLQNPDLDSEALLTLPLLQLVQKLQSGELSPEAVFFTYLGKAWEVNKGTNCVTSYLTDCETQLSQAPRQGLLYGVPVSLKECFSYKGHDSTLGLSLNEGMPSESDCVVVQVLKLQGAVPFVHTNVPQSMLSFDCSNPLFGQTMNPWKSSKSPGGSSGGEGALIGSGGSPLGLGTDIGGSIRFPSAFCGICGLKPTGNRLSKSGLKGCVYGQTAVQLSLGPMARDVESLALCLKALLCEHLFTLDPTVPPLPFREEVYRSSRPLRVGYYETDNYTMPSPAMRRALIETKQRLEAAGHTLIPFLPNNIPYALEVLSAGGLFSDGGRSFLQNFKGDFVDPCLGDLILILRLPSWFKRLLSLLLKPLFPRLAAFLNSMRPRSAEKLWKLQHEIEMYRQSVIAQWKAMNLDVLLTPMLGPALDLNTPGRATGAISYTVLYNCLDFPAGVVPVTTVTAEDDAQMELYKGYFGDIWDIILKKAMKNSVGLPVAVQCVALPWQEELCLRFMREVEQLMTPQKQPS
The test is described as follows: Assay Method 2: FAAH assay, 3H-anandamide hydrolysis in homogenate of SK-N-MC cells transfected with rat FAAH. The class given is biochemical. The settings on record: average of results, > = solubility limit or highest concentration tested. How it is done:
A. Transfection of Cells with Rat FAAH
as §1, with “rat” for “human”
as §2, §3

Where a name gives a salt, the structure may show the parent alone.

As to `O=C(Nc1ccc(Cl)nn1)N1CCC(Cc2cccc(C(F)(F)F)c2)CC1` [Example 25, 4-(3-Trifluoromethyl-benzyl)-piperidine-1-carboxylic acid (6-chloro-pyridazin-3-yl)-amide], the IC50 in test [1] and in test [2] was 1300 nM each time.

Regarding `O=C(Nc1ccon1)N1CCC(Cc2cccc(C(F)(F)F)c2)CC1` [Example 26, 4-(3-Trifluoromethyl-benzyl)-piperidine-1-carboxylic acid isoxazol-3-ylamide], the IC50 worked out at 5000 nM in test [1] and 1000 nM in test [2].

Turning to `O=C(Nc1noc2ccccc12)N1CCC(Cc2cccc(C(F)(F)F)c2)CC1` [Example 27, 4-(3-Trifluoromethyl-benzyl)-piperidine-1-carboxylic acid benzo[d]isoxazol-3-ylamide], the IC50 in test [1] is 77 nM; in test [2], 47 nM.

For the molecule `O=C(Nc1noc2ccccc12)N1CCN(Cc2cccc(Oc3ccc(F)c(C(F)(F)F)c3)c2)CC1` [Example 28, 4-[3-(4-Fluoro-3-trifluoromethyl-phenoxy)-benzyl]-piperazine-1-carboxylic acid benzo[d]isoxazol-3-ylamide trifluoroacetic acid salt], the IC50 in test [1] came out at 95 nM; in test [2], 17 nM.

Take `O=C(Nc1noc2ccccc12)N1CCN(Cc2cccc(Oc3cccc(OC(F)(F)F)c3)c2)CC1` [Example 29, 4-[3-(3-Trifluoromethoxy-phenoxy)-benzyl]-piperazine-1-carboxylic acid benzo[d]isoxazol-3-ylamide trifluoroacetic acid salt]: the figures for the IC50 in test [1] and in test [2] were 16 nM and 23 nM, respectively.

On to `O=C(Nc1noc2ccccc12)N1CCN(Cc2cccc(Oc3ccc(OC(F)(F)F)cc3)c2)CC1` [Example 30, 4-[3-(4-Trifluoromethoxy-phenoxy)-benzyl]-piperazine-1-carboxylic acid benzo[d]isoxazol-3-ylamide trifluoroacetic acid salt], for which the IC50 is 0.1 nM in test [1] and 14 nM in test [2].

`O=C(Nc1noc2ccccc12)N1CCN(Cc2cccc(Oc3cccc(Br)c3)c2)CC1` [Example 31, 4-[3-(3-Bromo-phenoxy)-benzyl]-piperazine-1-carboxylic acid benzo[d]isoxazol-3-ylamide trifluoroacetic acid salt]: the values for the IC50 in test [1] and in test [2] were 22 nM and 17 nM, respectively.

In the case of `O=C(Nc1noc2ccccc12)N1CCN(Cc2cccc(Oc3ccc(Br)cc3)c2)CC1` [Example 32, 4-[3-(4-Bromo-phenoxy)-benzyl]-piperazine-1-carboxylic acid benzo[d]isoxazol-3-ylamide trifluoroacetic acid salt], the figures for the IC50 in test [1] and in test [2] were 3 nM and 4 nM, respectively.

As for `O=C(Nc1noc2ccccc12)N1CCN(Cc2cccc(Oc3ccc(F)c(F)c3)c2)CC1` [Example 33, 4-[3-(3,4-Difluoro-phenoxy)-benzyl]-piperazine-1-carboxylic acid benzo[d]isoxazol-3-ylamide], the IC50 in test [1] was 52 nM; in test [2], 30 nM.

For the molecule `O=C(Nc1noc2ccccc12)N1CCN(Cc2cccc(Oc3cc(F)cc(F)c3)c2)CC1` [Example 34, 4-[3-(3,5-Difluoro-phenoxy)-benzyl]-piperazine-1-carboxylic acid benzo[d]isoxazol-3-ylamide trifluoroacetic acid salt], the IC50 in test [1] was 152 nM; in test [2], 190 nM.

Regarding `O=C(Nc1noc2ccccc12)N1CCN(Cc2cccc(Oc3ccc(OCC(F)(F)F)cc3)c2)CC1` [Example 35, 4-{3-[4-(2,2,2-Trifluoro-ethoxy)-phenoxy]-benzyl}-piperazine-1-carboxylic acid benzo[d]isoxazol-3-ylamide], the half-maximal inhibitory concentration (IC50) in test [1] was determined as 5 nM; in test [2], 20 nM.

Regarding `O=C(Nc1cccc2nsnc12)N1CCN(Cc2cccc(Oc3ccc(Cl)c(Cl)c3)c2)CC1` [Example 38, 4-[3-(3,4-Dichloro-phenoxy)-benzyl]-piperazine-1-carboxylic acid benzo[1,2,5]thiadiazol-4-ylamide trifluoroacetic acid salt], the IC50 in test [1] was found to be 70 nM; in test [2] it was 9 nM.

With `O=C(Nc1cccc2nsnc12)N1CCN(Cc2cccc(Oc3cc(Cl)cc(Cl)c3)c2)CC1` [Example 39, 4-[3-(3,5-Dichloro-phenoxy)-benzyl]-piperazine-1-carboxylic acid benzo[1,2,5]thiadiazol-4-ylamide trifluoroacetic acid salt], the IC50 in test [1] was 310 nM; in test [2], 573 nM.

For `O=C(Nc1cccc2nsnc12)N1CCN(Cc2cccc(Oc3cccc(C(F)(F)F)c3)c2)CC1` [Example 40, 4-[3-(3-Trifluoromethyl-phenoxy)-benzyl]-piperazine-1-carboxylic acid benzo[1,2,5]thiadiazol-4-ylamide trifluoroacetic acid salt], the IC50 in test [1] amounted to 156 nM; in test [2] it was 15 nM.

With `O=C(Nc1cccc2nsnc12)N1CCN(Cc2cccc(OC(F)(F)F)c2)CC1` [Example 41, 4-(3-Trifluoromethoxy-benzyl)-piperazine-1-carboxylic acid benzo[1,2,5]thiadiazol-4-ylamide trifluoroacetic acid salt], the values for the IC50 in test [1] and in test [2] were 48 nM and 141 nM, respectively.
